Where two headings read alike, the source gives them in different places. Numbered stars: 1 amine (or outer) side, 2 acyl side, 3 side chain; on linkers, the order of the positions; unused ones are H or OH. Bridge positions count the residues as written; N and C are the ends. Side chains are listed from the residue outwards. Peptide text beside a SMILES is read from it. * marks the point of attachment. C20 diacid = O=C(O)CCCCCCCCCCCCCCCCCCC(=O)*; γGlu = O=C(O)[C@H](CCC(=O)[*:2])N[*:1]; AEEA = NCCOCCOCC(=O)O
Key:
[1] = molecular target: T1, human amylin 3(a) receptor (human calcitonin receptor + RAMP-3) in BHK570 cells (Homo sapiens, UniProt O60896+P30988); assay: ASSAY (II)a functional assay, human amylin receptor (CRE luciferase); type: cell-based; settings: for EC50: human amylin receptor functional potency, assay (II), read-out: hAmylin-R funct. EC50
T1 construct: expressed in transfected cells
T1 sequence (O60896 24-148, one chain of several): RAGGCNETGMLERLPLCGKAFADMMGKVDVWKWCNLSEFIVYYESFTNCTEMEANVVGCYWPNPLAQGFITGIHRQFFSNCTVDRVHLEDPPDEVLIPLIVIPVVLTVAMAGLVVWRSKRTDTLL
In short: (§1)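 Cells were seeded and cultured overnight, then incubated with standard or sample for 3 h at 37° C in serum-containing medium at pH 7.4. The medium was then swapped for PBS, LucLite was added for 30 min at room temperature, and luminescence was recorded. Cells were BHK with CRE-luc and calcitonin receptor, ± RAMP-3.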

[2] = molecular target: T2, human calcitonin (a) receptor in BHK570 cells (Homo sapiens, UniProt P30988); assay: ASSAY (II)a functional assay, human calcitonin receptor (CRE luciferase); type: cell-based; settings: read-out: hCTR funct. EC50
T2 construct: expressed in transfected cells
T2 sequence (P30988 25-474): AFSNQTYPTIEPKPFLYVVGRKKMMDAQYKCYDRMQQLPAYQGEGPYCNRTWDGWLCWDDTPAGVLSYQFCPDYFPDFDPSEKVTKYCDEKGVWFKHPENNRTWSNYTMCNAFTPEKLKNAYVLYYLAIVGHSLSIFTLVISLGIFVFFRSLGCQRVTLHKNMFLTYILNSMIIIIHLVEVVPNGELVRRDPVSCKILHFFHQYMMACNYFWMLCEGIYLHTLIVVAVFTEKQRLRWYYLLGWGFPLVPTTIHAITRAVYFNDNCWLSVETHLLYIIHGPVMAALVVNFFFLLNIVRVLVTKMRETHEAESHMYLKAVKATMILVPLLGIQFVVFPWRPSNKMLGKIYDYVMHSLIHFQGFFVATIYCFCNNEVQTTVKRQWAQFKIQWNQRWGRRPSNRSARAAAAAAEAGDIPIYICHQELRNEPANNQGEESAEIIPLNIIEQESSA
In short: as §1

[3] = ASSAY (IV) determination of solubility; type: physicochemical
In short: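 Polypeptide in water at […] mixed 1:1 with 100 mM buffers of pH 3.0-8.0 (glycylglycine pH 3-5, bistrispropane pH 6-8). Held 18 h at room temperature, then centrifuged; concentration remaining in solution measured by UPLC.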

[4] = molecular target: T3, rat amylin receptor (rat calcitonin receptor + rat RAMP 3) (Rattus norvegicus, UniProt P32214+Q9JJ73); assay: ASSAY (VI) binding to the rat amylin receptor; settings: for IC50: binding to rat amylin receptor, read-out: rAmylin-R bind IC50
T3 construct: expressed in transfected cells; host or cells: BHK tk'ts 13 (transient, FuGENE 6), membranes
T3 sequence (P32214 25-479 isoform P32214-2 limits assumed): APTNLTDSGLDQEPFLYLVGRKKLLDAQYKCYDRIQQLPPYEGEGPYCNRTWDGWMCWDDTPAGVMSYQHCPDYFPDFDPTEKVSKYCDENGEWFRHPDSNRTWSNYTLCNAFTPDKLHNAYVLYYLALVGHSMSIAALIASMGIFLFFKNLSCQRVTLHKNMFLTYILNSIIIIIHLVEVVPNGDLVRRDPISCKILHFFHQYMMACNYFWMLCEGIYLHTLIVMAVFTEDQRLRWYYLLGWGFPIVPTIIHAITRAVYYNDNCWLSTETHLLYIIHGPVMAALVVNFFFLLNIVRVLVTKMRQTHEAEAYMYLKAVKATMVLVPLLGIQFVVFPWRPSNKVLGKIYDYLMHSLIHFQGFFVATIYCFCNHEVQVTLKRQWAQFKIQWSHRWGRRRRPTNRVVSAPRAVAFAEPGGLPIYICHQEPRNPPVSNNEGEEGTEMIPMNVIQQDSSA
T3 sequence (Q9JJ73 23-147 partner): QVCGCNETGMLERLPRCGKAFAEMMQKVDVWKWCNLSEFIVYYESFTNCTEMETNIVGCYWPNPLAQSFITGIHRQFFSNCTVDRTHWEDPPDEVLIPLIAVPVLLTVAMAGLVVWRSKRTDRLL
In short: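 Binding to the rat amylin receptor was determined with membrane preparations. The receptor was expressed by transiently transfecting BHK tk′ts 13 cells with rat calcitonin receptor, using FuGENE® 6 (Roche) according to the manufacturer's recommendations. Roughly 48 hours later the cells were harvested and their membranes isolated.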

[5] = molecular target: T4, human calcitonin receptor (Homo sapiens, UniProt P30988); assay: ASSAY (VII) binding to the human calcitonin receptor (SPA, 125I-Calcitonin); settings: read-out: hCTR bind IC50;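 also: cell membranes (35 ng/µL) combined with SPA beads in 40 µL of pH 7.4 Hepes buffer, 384-well format, signal counted on a TopCounter instrument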
T4 construct: expressed in transfected cells
T4 sequence (P30988 25-474): T2 sequence (P30988 25-474)

[6] = hCTR funct. EC50 divided by hAmylin-R funct. EC50
[7] = hCTR funct. EC50 over hAmylin-R funct. EC50
[8] = human functional selectivity: hCTR funct. EC50 / hAmylin-R funct. EC50
[9] = bistrispropane buffer, pH 6.5, read-out: Solubility pH 6.5 Concentration
[10] = bistrispropane buffer, pH 7.5, read-out: Solubility pH 7.5 Concentration
[11] = bistrispropane buffer, pH 6.0, read-out: Solubility pH 6.0 Concentration
[12] = bistrispropane buffer, pH 7.0, read-out: Solubility pH 7.0 Concentration
[13] = bistrispropane buffer, pH 8.0, read-out: Solubility pH 8.0 Concentration
[14] = glycylglycine buffer, pH 3.0, read-out: Solubility pH 3.0 Concentration
[15] = glycylglycine buffer, pH 4.0, read-out: Solubility pH 4.0 Concentration
[16] = glycylglycine buffer, pH 5.0, read-out: Solubility pH 5.0 Concentration
[17] = Table 7, rat binding selectivity, rCTR IC50 / rAmylin-R IC50
[18] = Table 7a (preferred compounds), rat binding selectivity, rCTR IC50 / rAmylin-R IC50
[19] = ratio of rCTR bind IC50 to rAmylin-R bind IC50

Ratio hCT/hAmylin funct. [1, 6]	Ratio hCT/hAmylin funct. [1, 7]	EC50 [1]	Ratio hCT/hAmylin funct. [1, 8]	EC50 [2]	solubility at 18 h [3, 9]	solubility at 18 h [3, 10]	solubility at 18 h [3, 11]	solubility at 18 h [3, 12]	solubility at 18 h [3, 13]	solubility at 18 h [3, 14]	solubility at 18 h [3, 15]	solubility at 18 h [3, 16]	IC50 ([4]; Table 7)	Ratio rCT/rAmylin binding [4, 17]	Ratio rCT/rAmylin binding [4, 18]	Ratio rCT/rAmylin binding [4, 19]	IC50 [5]	Compound
17.0	17.0	0.116 nM	17.0	1.97 nM	≥ 200 µM	≥ 200 µM	≥ 200 µM	≥ 200 µM	≥ 200 µM	≥ 200 µM	≥ 200 µM	≥ 200 µM	0.558 nM	201.3	201.3	201.3	30.9 nM	CC[C@H](C)[C@H](NC(=O)[C@H](C)NC(=O)CNC(=O)[C@H](Cc1ccccc1)NC(=O)[C@H](CC(N)=O)NC(=O)[C@@H]1CCCN1C(=O)[C@H](CO)NC(=O)[C@H](CO)NC(=O)[C@H](Cc1c[nH]cn1)NC(=O)[C@H](CCCNC(=N)N)NC(=O)[C@H](CC(C)C)NC(=O)[C@H](Cc1ccccc1)NC(=O)[C@H](CC(N)=O)NC(=O)[C@H](C)NC(=O)[C@H](CC(C)C)NC(=O)[C@H](CCCNC(=N)N)NC(=O)[C@H](CCC(N)=O)NC(=O)[C@@H](NC(=O)[C@H](C)NC(=O)[C@@H]1CSSC[C@H](NC(=O)[C@@H](N)CCCCNC(=O)CC[C@H](NC(=O)CCCCCCCCCCCCCCCCCCC(=O)O)C(=O)O)C(=O)N[C@@H](CC(N)=O)C(=O)N[C@@H]([C@@H](C)O)C(=O)N[C@@H](C)C(=O)N[C@@H]([C@@H](C)O)C(=O)N1)[C@@H](C)O)C(=O)N1CCC[C@H]1C(=O)N[C@@H](CO)C(=O)N[C@@H](CO)C(=O)N[C@H](C(=O)N[C@@H](CC(N)=O)C(=O)N[C@H](C(=O)NCC(=O)N[C@@H](CO)C(=O)N[C@@H](CC(N)=O)C(=O)N[C@H](C(=O)N[C@@H](Cc1ccc(O)cc1)C(N)=O)[C@@H](C)O)C(C)C)[C@@H](C)O [Example 48]
17.4	17.4	0.038 nM	17.4	0.662 nM	≥ 200 µM	≥ 200 µM	≥ 200 µM	≥ 200 µM	≥ 200 µM	≥ 200 µM	≥ 200 µM	≥ 200 µM	0.069 nM	81.7	81.7	81.7	1.38 nM	CC[C@H](C)[C@H](NC(=O)[C@H](C)NC(=O)CNC(=O)[C@H](Cc1ccccc1)NC(=O)[C@H](CC(N)=O)NC(=O)[C@@H]1CCCN1C(=O)[C@H](CO)NC(=O)[C@H](CO)NC(=O)[C@H](Cc1c[nH]cn1)NC(=O)[C@H](CCCNC(=N)N)NC(=O)[C@H](CC(C)C)NC(=O)[C@H](Cc1ccccc1)NC(=O)[C@H](CC(N)=O)NC(=O)[C@H](C)NC(=O)[C@H](CC(C)C)NC(=O)[C@H](CCCNC(=N)N)NC(=O)[C@H](CCC(N)=O)NC(=O)[C@@H](NC(=O)[C@H](C)NC(=O)[C@@H]1CSSC[C@H](NC(=O)[C@@H](N)CCCCNC(=O)COCCOCCNC(=O)CC[C@H](NC(=O)CCCCCCCCCCCCCCCCCCC(=O)O)C(=O)O)C(=O)N[C@@H](CC(N)=O)C(=O)N[C@@H]([C@@H](C)O)C(=O)N[C@@H](C)C(=O)N[C@@H]([C@@H](C)O)C(=O)N1)[C@@H](C)O)C(=O)N1CCC[C@H]1C(=O)N[C@@H](CO)C(=O)N[C@@H](CO)C(=O)N[C@H](C(=O)N[C@@H](CC(N)=O)C(=O)N[C@H](C(=O)NCC(=O)N1CCC[C@H]1C(=O)N[C@@H](CC(N)=O)C(=O)N[C@H](C(=O)N[C@@H](Cc1ccc(O)cc1)C(N)=O)[C@@H](C)O)C(C)C)[C@@H](C)O [Example 50]

Compound	Ratio hCT/hAmylin funct. [1, 6]	Ratio hCT/hAmylin funct. [1, 7]	EC50 [1]	Ratio hCT/hAmylin funct. [1, 8]	EC50 [2]	solubility at 18 h [3, 9]	solubility at 18 h [3, 10]	solubility at 18 h [3, 11]	solubility at 18 h [3, 12]	solubility at 18 h [3, 13]	solubility at 18 h [3, 14]	solubility at 18 h [3, 15]	solubility at 18 h [3, 16]	IC50 ([4]; Table 7)	Ratio rCT/rAmylin binding [4, 17]	Ratio rCT/rAmylin binding [4, 18]	Ratio rCT/rAmylin binding [4, 19]	IC50 [5]
CC[C@H](C)[C@H](NC(=O)[C@H](C)NC(=O)CNC(=O)[C@H](Cc1ccccc1)NC(=O)[C@H](CC(N)=O)NC(=O)[C@@H]1CCCN1C(=O)[C@H](CO)NC(=O)[C@H](CO)NC(=O)[C@H](Cc1c[nH]cn1)NC(=O)[C@H](CCCNC(=N)N)NC(=O)[C@H](CC(C)C)NC(=O)[C@H](Cc1ccccc1)NC(=O)[C@H](CC(N)=O)NC(=O)[C@H](C)NC(=O)[C@H](CC(C)C)NC(=O)[C@H](CCCNC(=N)N)NC(=O)[C@H](CCC(N)=O)NC(=O)[C@@H](NC(=O)[C@H](C)NC(=O)[C@@H]1CSSC[C@H](NC(=O)[C@@H](N)CCCCNC(=O)COCCOCCNC(=O)CC[C@H](NC(=O)CCCCCCCCCCCCCCCCCCC(=O)O)C(=O)O)C(=O)N[C@@H](CC(N)=O)C(=O)N[C@@H]([C@@H](C)O)C(=O)N[C@@H](C)C(=O)N[C@@H]([C@@H](C)O)C(=O)N1)[C@@H](C)O)C(=O)N1CCC[C@H]1C(=O)N[C@@H](CO)C(=O)N1CCC[C@H]1C(=O)N[C@H](C(=O)N1CCC[C@H]1C(=O)N[C@H](C(=O)NCC(=O)N[C@@H](CO)C(=O)N[C@@H](CC(N)=O)C(=O)N[C@H](C(=O)N[C@@H](Cc1ccc(O)cc1)C(N)=O)[C@@H](C)O)C(C)C)[C@@H](C)O [Example 54] (H-K([AEEA-γGlu-C20 diacid])CNTATCATQRLANFLRHSSPNFGAIPSPTPVGSNTY-NH2; disulfide 2-7; N-terminus assumed)	9.6		0.103 nM	9.6	0.987 nM	≥ 200 µM	≥ 200 µM	≥ 200 µM	≥ 200 µM	≥ 200 µM	≥ 200 µM	≥ 200 µM	≥ 200 µM	0.049 nM	179.4	179.4	179.4	4.38 nM

From patent US9023789B2, “Amylin analogs and pharmaceutical compositions thereof” (Novo Nordisk A/S, priority 2012, dated 2015)
